Entries after “also recorded” stand apart in the source; their conditions may differ.
Tests used:
BHK cells = test: Mitochondrial dehydrogenase activity (MTT); type: cell-based, hamster
rat cortical neurons = test: Oxygen and glucose deprivation (OGD) followed by reoxygenation; type: cell-based; details: 10 nM; 3 hours OGD followed by 21 hours of reoxygenation
Procedure: The effect of neurounina-1 was evaluated on cell viability by using rat primary cortical neurons obtained as follow. Briefly, cortical neurons were prepared from brains of 1-2 day-old new-born rats, anaesthetizes with halothane in a glass chamber and decapitated. Dissection and dissociation were performed in a Ca^2+-Mg^2+-free PBS containing glucose. The brain was removed from the skull and the cerebral cortex was removed. Cerebral cortex was first digested enzymatically and after dispersed mechanically by trituration. Cellular suspension was plated on coverslips previously pre-coated with poly-D-lysine 1mg/ml and cultured in "Neurobasal" medium containing B27 (1:50) and Glutamax)1:100).
The oxygen and glucose deprivation (OGD) was used as a model to reproduce in vitro a condition similar to that observed in vivo when a cerebral vessel was occluded as it occurs in stroke. Briefly, cells were incubated in a medium oxygen and glucose-free and containing: NaCl 116 mM, KCI 5.4 mM, MgSO4 0.8 mM, NaHCO3 26.2 mM, NaH2PO4 1 mM, CaCl2 1.8 mM, glycin 0.01 mM e phenol 0.001 mM (w/v) (Molinaro et al., 2008). This medium was previously saturated with 1 atm of a gas containing 95% N2 and 5% CO2 for 20 minutes. […]

NCX1 = target: T1, NCX1 (Canis lupus familiaris, UniProt P23685); test: Fura-2 AM single-cell microfluorimetry, BHK-NCX1 cells; type: cell-based; details: 10 nM (Fig. 2)
T1 construct: expressed in transfected cells
Procedure: The activity of NCX was established by means of three different subclones of baby hamsted kidney (BHK) cells that were stably transfected with one of each NCX isoforms, named BHK-NCX1, BHK-NCX2 and BHK-NCX3. These cell lines were grown on plastic dishes in a mix of DMEM and Ham's F12 media (1:1) (Gibco, Invitrogen, MI, Italy) supplemented with 5% fetal bovine serum, 100 U/ml penicillin, and 100 µg/ml streptomycin (Sigma, St. Louis, Missouri, USA). Cells were cultured in a humidified 5% CO2 atmosphere and at the temperature of 37°C.
NCX activity has been measured considering the variation of intracellular concentrations of Ca^2+ ions ([Ca^2+]i) due to its activation by means of single-cell microfluorimetry. […] In both cases, this probe will produce an emission at 510 nm; the ratio between the two emission relative to 340 and 380 excitation allow to quantify [Ca^2+]i in the time considering the calibration curve previously performed. […]
Briefly, BHK cells wild type and/or BHK trasnsfected with NCX mutants, grown on glass coverslips, were loaded with Fura-2 acetoxymethyl ester (Fura-2AM) (10 µM) for 30 minutes at 37°C in normal Krebs solution containing the following (in mM): 5.5 KCI, 160 NaCl, 1.2 MgCl2, 1.5 CaCl2, 10 glucose, and 10 Hepes-NaOH, pH 7.4. […] Fura-2 fluorescence intensity was measured every 3 seconds. […]

T1 sequence (P23685 33-970): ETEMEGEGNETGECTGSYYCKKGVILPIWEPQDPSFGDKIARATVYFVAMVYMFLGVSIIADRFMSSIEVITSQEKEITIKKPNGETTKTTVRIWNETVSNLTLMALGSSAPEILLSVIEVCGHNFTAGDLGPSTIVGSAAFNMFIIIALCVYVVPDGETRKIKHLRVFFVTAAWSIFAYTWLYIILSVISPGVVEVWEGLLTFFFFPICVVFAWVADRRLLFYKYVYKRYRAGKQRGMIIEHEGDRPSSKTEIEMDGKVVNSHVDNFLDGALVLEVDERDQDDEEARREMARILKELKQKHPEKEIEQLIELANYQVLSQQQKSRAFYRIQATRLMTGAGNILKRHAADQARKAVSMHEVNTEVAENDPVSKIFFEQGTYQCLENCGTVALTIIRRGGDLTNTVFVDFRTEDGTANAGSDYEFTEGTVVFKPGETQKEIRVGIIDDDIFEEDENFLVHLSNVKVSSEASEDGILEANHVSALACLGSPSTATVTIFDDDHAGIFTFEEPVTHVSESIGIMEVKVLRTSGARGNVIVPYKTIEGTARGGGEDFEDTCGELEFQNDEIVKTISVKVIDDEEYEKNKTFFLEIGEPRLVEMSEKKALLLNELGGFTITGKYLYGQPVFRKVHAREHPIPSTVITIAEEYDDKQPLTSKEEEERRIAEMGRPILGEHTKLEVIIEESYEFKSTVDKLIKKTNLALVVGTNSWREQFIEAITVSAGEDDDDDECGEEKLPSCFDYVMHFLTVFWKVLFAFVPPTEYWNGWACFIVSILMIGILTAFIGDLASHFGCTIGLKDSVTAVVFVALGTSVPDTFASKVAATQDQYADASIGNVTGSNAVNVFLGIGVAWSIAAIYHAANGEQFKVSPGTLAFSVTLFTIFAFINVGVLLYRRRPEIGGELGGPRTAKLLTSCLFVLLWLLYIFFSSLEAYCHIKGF

Structure (SMILES): O=C1CN=C(c2ccccc2)c2cc([N+](=O)[O-])ccc2N1CN1CCCC1 [neurounina-1, 7-nitro-5-phenyl-1-(pyrrolidin-1-ylmethyl)-1H-benzo[e][1,4]diazepin-2(3H)-one]
- non-toxic concentration relative to EC50 (BHK cells; 10 µM versus EC50): ~10.000 times
- mitochondrial activity (BHK cells; 10 µM, 24 hours, BHK cells): did not show any toxic effect; also recorded: did not affect
- cell death of rat cortical neurons (rat cortical neurons): reduced cell death
- increased reverse mode activity of NCX1 (NCX1): 30%

— patent publication EP2646421B1, “7-NITRO-5-PHENYL-1-(PYRROLIDIN-1-YLMETHYL)-1H-BENZO[E][1,4]DIAZEPIN-2(3H)-ONE AND OTHER BENZODIAZEPINE DERIVATIVES” (Pignataro, Giuseppe, priority 2010, dated 2012)
